This passage reports MIC results from patent US10640507B2, “PBD antibacterial agents” (KING'S COLLEGE LONDON, priority 2015, dated 2020).

In brackets after ≈: the same amount, converted by molar mass.

What all share (assay): General MIC protocol, Gram negative
Common to all, as to assay type: cell-based

One assay deals with A. baumannii W1. To be noted: Acinetobacter baumannii. In outline:
(§1)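 Broth microdilution in tryptic soy broth used two-fold serial dilutions from a top final concentration of 32 μg/ml and a starting inoculum of 5×10^5 bacteria/ml. Plates stood 20 h at 37 °C unless specified elsewhere. Growth was judged by OD600.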

The next assay relates to K. pneumonia NCTC 46704. Particulars: Klebsiella pneumoniae, NCTC46704. In outline: as §1
For the next assay, the system named is A. baumannii NCTC 13424. Particulars: Acinetobacter baumannii, NCTC13424. In outline: as §1
The test system of assay [1] is B. cepacia CEP509 (LMG 18821). To be noted: Burkholderia cepacia, LMG18821. The gist of the method:
as §1

In a further assay the test system is B. cepacia ATCC 17765. Particulars: Burkholderia cepacia, ATCC17765. The gist of the method:
as §1

The next assay deals with A. baumannii UKA7. To be noted: Acinetobacter baumannii. In outline:
as §1

Assay [2] has as its system B. multivorans C1576 (LMG 16660). Particulars: Burkholderia multivorans, LMG16660. The gist of the method: as §1
In assay [3] the test system is B. multivorans C1962 (LMG 16665). To be noted: Burkholderia multivorans, LMG16665. The gist of the method:
as §1

Another assay relates to B. cepacia NCTC 10743. To be noted: Burkholderia cepacia, NCTC10743. In outline:
as §1

A further assay concerns B. cepacia LMG 17997. Particulars: Burkholderia cepacia, LMG17997. The gist of the method:
as §1

Another assay relates to A. baumannii ADP1. To be noted: Acinetobacter baumannii. The gist of the method:
as §1

As a reminder, the MIC is the smallest concentration in the dilution series that meets the test's criterion for growth inhibition. A higher MIC goes with a need for much substance. `COc1cc2c(cc1OCCCC(=O)Nc1cc(C(=O)Nc3ccc4sc(C(=O)N(C)C)cc4c3)n(C)c1)N=C[C@@H]1CCCN1C2=O` [KMR-14-33, (S)—N-(2-(dimethylcarbamoyl)benzo[b]thiophen-5-yl)-4-(4-((7-methoxy-5-oxo-2,3,5,11a-tetrahydro-1H-benzo[e]pyrrolo[1,2-a][1,4]-diazepin-8-yl)oxy)butanamido)-1-methyl-1H-pyrrole-2-carboxamide]: the MIC is 1 µg/mL (≈ 1.52 µM) against A. baumannii W1; 1 µg/mL (≈ 1.52 µM) against K. pneumonia NCTC 46704; 0.5 µg/mL (≈ 0.761 µM) in the assay with A. baumannii NCTC 13424; 2 µg/mL (≈ 3.05 µM) in assay [1]; 0.125 µg/mL (≈ 0.19 µM) with B. cepacia ATCC 17765; 0.5 µg/mL (≈ 0.761 µM) against A. baumannii UKA7. Further, the MIC in assay [2] was 1 µg/mL (≈ 1.52 µM); in [3], 2 µg/mL (≈ 3.05 µM); against B. cepacia NCTC 10743, 1 to 2 µg/mL (≈ 1.52 to 3.05 µM); against B. cepacia LMG 17997, 0.125 µg/mL (≈ 0.19 µM); in the assay with A. baumannii ADP1 it was 0.125 µg/mL (≈ 0.19 µM).
